The values that follow come from patent US9534008B2, “Small molecule compounds that control plant- and insect-pathogenic nematodes” (California Institute of Technology, priority 2011, dated 2017).

One test has as its system C. elegans dauer larvae. Put plainly: Dispersal assay, C. elegans dauer. It counts as in vivo. As to conditions: for dispersing nematodes, normalized to percent of the positive control response: physiological concentration, with 0.25% E. coli (HB101), positive control dauer conditioned medium; for substitution for ascr#2 in the C. elegans dispersal blend: in vivo. On the procedure:
C. elegans dauer juveniles were washed with MILLI-Q water 3 times, placed into 6 cm petri dishes with a small amount of water, and rested overnight. Approximately 200-300 nematodes in 10 μl of water were placed on an agar plate, to which 2 μl of treatment was added. The liquid culture that produced 60% dauer animals was centrifuged, filtered with a 0.45 μm filter, and used as a positive control for dispersal. Thereafter, media were lyophilized and resuspended in MILLI-Q water 5 times. 2 μl to 10 μl of nematode suspension was used for the assay. As a negative control, 0.5% E. coli (HB101) was prepared in S-complete, lyophilized, and adjusted to the final volume of 0.25% E. coli in the assay.
Nematodes were quantified using Image J software (Image Processing and Analysis in Java, National Institutes of Health). The number of nematodes visualized and counted using Image J is illustrated in FIG. 63B. Nematodes inside the circle were subtracted manually from the total number of worms counted because of the location of their placement. Each treatment was replicated 9-11 times. The graph was normalized to the positive control, the dauer conditioned medium.

A further test deals with C. elegans males. Put plainly: Attraction assay (long-range, point source). The settings on record: in vivo. On the procedure:
10 cm standard chemotaxis plates were prepared (Bargmann et al., Cell 74:515-27 (1993), which is hereby incorporated by reference in its entirety) and stored at 4° C. until the day before use. Standard 1 cm-diameter copper pipes were sectioned into 1 cm-tall segments to use for the holding chambers. The females/hermaphrodites were isolated overnight, washed 3 times in M9 buffer, and then allowed to wander on a plate pre-conditioned with 50 uL of 1000× streptomycin for 2 hours to kill any bacteria that might produce a false positive attractant. The nematodes were then washed 3 times, and the supernatant from the last wash was placed in a copper chamber, as the control, 1 cm from the border of the 10 cm plate. The nematodes were suspended in M9 within the copper chamber, 1 cm from the border opposite the control chamber. After 6 hours, they were subsequently removed and replaced with 3 μL of 1M sodium azide. 100 C. elegans adult males were isolated overnight, washed several times in ddH2O, and placed at the center of the agar plate. After several hours, males paralyzed within 2 cm of each region were scored. The Chemotaxis Index (Bargmann et al., Cell 74:515-27 (1993), which is hereby incorporated by reference in its entirety) was then used to score male chemotaxis to either point source.

In test [1] the test system is C. elegans. Put plainly: Ascaroside function (Table 12), C. elegans. The format is in vivo, Caenorhabditis elegans. Further details: key to Attract Females/Herm. / Promote Dauer Formation / Attract Males: A very strong result of affecting nematode behavior is designated in the table as “strong.”. As to the method:
(§1) Various ascarosides and ascaroside blends were administered to various nematodes described below (Table 12). […] A very strong result of affecting nematode behavior is designated in the table as “strong.”

In a further test the test system is S. feltiae. Nature of the test: Ascaroside function (Table 12), S. feltiae. The format is in vivo, Steinernema feltiae. As to the method: as §1
The subject of test [2] is C. elegans. As to conditions: cited from earlier work; for most active amount for attraction in C. elegans: from 1 μM concentration.
Test [3] relates to C. elegans. The settings on record: in vivo; cited from earlier work.
In test [4] the test system is several of the tested nematode species. Put plainly: Retention assay, across species. The settings on record: 1 nM, 1 μM and 1 mM tested. The format is in vivo. On the procedure:
OP50 E. coli was grown on a standard 5 cm agar plate (made with standard Nematode Growth Medium). The bacterial lawn was 16 mm in diameter and was grown overnight at 20° C. before being used in trials. Two 4 mm spots (0.6 μL) were placed on opposite sides of the bacterial lawn (using a transparent template to guide spot placement), and several minutes elapsed for the liquid to settle in before placing nematodes down on the assay. Recording began immediately upon worm placement. 0.6 μL of the control was placed on one side of the lawn, and 0.6 μL of the experimental cue was placed on the other side of the lawn, changing the location of the cue throughout trials between left/right and top/bottom to avoid bias.
Nematodes were isolated by gender at the L4 stage the day before being used in trials as developed adults. Worms were evenly divided and placed at two points equidistant from the foci of the scoring region. Trials were recorded for 20 minutes, and frames were collected for analysis at 1 frame per second. Results were averaged from at least three different trials. For every nematode species in this study, a different total number of worms (using water in both scoring regions) was tested to determine the minimum number of worms necessary for consistent unbiased results over a 20 minute trial. The total number of worms used in the multiple species assays depended on that species' optimal parameters. 10 worms were used for P. redivivus males and females, 20 worms were used for C. elegans males and O. dolichuridae males, and 14 worms were used for S. glaseri males. The Automated Software was used to compare worm occupancy in each scoring region over time, and the Chemotaxis Index (Bargmann et al., Cell 74:515-27 (1993), which is hereby incorporated by reference in its entirety) was adapted to score preference or avoidance to each ascaroside.
A video camera attached to the microscope produced a digital video stream, which was then analyzed. The ratio of the time the average worm spent in each region of interest was calculated for every trial. For ease of implementation, all worms in a single experiment were assumed to be roughly the same size. Thus worm pixels were counted instead of whole worms, allowing fractions of a worm in the region of interest to be taken into account. It also eliminated the need for a shape-based worm identification algorithm, and allowed each frame to be analyzed independently. A band-pass filter was applied to each frame to eliminate the effect of uneven lighting and also accentuate the worms against the background. The worm was then identified after thresholding the filtered image. Throughout each experiment, the locations and sizes of the regions of interest were known. Through the filtering described above, it is known which pixels are occupied by worms and which ones are not. Thus, the ratio of worm-pixels to all pixels inside the region of interest can be calculated to produce the worm-occupancy ratio. This calculation was done for every frame, giving a plot output of worm-occupancy ratio vs. time for each region.

Another test concerns Panagrellus redivivus. Put plainly: Ascaroside function (Table 12), Panagrellus redivivus. The format is in vivo. As to the method:
as §1

The subject of another test is S. glaseri. Put plainly: Ascaroside function (Table 12), S. glaseri. The format is in vivo. As to the method:
as §1

A further test concerns S. feltiae IJs. Put plainly: Dispersal assay, S. feltiae IJs. It counts as in vivo. The settings on record: physiologically relevant concentrations. As to the method:
S. feltiae IJs were washed with MILLI-Q water three times and incubated in 6 cm petri dishes for […] with a small amount (4-5 ml) of MILLI-Q water. Nematodes were placed the following day on a 10.7 g/L agar with 1010 g/cm^2 gel strength (PhytoTechnology Lab. Shawnee Mission, Kans.). Nematode behavior was assayed on multiple plates with internal plate replicates to rule out the possibility that behavior was affected by plate composition. Approximately 300 IJs in 10 μl water were placed on an agar medium and the test compounds or extracts (1-2 μl) were placed into the nematode suspension. Upon absorption (˜15 minutes) of the liquid, the freely moving nematodes were video recorded for 5-10 minutes. Dispersal behavior is temperature and season dependent. During winter, the assay is effective at room temperature (22±1° C.). During summer, the assay requires a temperature controlled environment due to the effects on nematode behavior above 23° C.
For entomopathogenic nematodes (EPN), insect cadavers are known to promote dispersal behavior of the IJ stage (Shapiro-Ilan et al., J. Invertebr. Pathol. 83:270-72 (2003), which is hereby incorporated by reference in its entirety). An assay was therefore developed to identify compounds in consumed insect cadavers that promote dispersal. Approximately 300 IJs of S. feltiae in 10 μl of water were placed on an agar plate (FIG. 64B). […]

In test [5] the test system is Meloidogyne javanica, M. floridensis, M. incognita, M. hapla. Put plainly: Ascaroside function (Table 12), root-knot nematodes. The format is in vivo, Meloidogyne spp. As to conditions: Meloidogyne javanica, M. floridensis, M. incognita, M. hapla. As to the method:
as §1

The test system of test [6] is Steinernema riobrave, S. diaprepesi, S carpocapse. Put plainly: Ascaroside function (Table 12), Steinernema riobrave group. It counts as in vivo, Steinernema spp. As to the method:
as §1

In test [7] the test system is Heterorhabditis bacteriophora, H. zealandica, H. floridensis. Put plainly: Ascaroside function (Table 12), Heterorhabditis. As to conditions: Heterorhabditis bacteriophora, H. zealandica, H. floridensis. It counts as in vivo, Heterorhabditis spp. On the procedure: as §1

“Also recorded” adds a separate entry of the source.

With `CC(=O)CCC[C@@H](C)O[C@@H]1O[C@@H](C)[C@H](O)C[C@H]1O` [ascr#2], the “dispersing nematodes, normalized to percent of the positive control response” value with C. elegans dauer larvae was found to be 40%. Further, in the test on C. elegans males, the “C. elegans male chemotaxis to a point source” value (from here on “C. elegans male chemotaxis”) is listed as “chemotax towards” and the “amount eliciting C. elegans male attraction from a distance (as low as)” value was not above 500 attomol. In the test on C. elegans [1], the “Attract Males” value is given as “ascr#2”; the “Dispersal (of dauer larvae, infectious juveniles)” value is on record as “ascr#2”; the “Promote Dauer Formation” value was “([strong])”. Also, the “Dispersal (of dauer larvae, infectious juveniles)” value with S. feltiae is listed as “ascr#2”. Besides, in the test on C. elegans [2], the “most active amount for attraction in C. elegans” value is reported as approximately 1 pmol. The dauer-inducing activity result in the test on C. elegans [3] was “promote dauer entry”.

As to `CC1O[C@@H](O[C@H](C)CCCC/C=C/C(=O)O)[C@@H](O)C[C@H]1O` (stereo partly shown) [ascr#3], the “preference for areas conditioned by ascaroside” value (shortened to “preference for areas conditioned”) in test [4] was “preferred”. In the test on C. elegans males, the “C. elegans male chemotaxis” value was “chemotax towards” and the “amount eliciting C. elegans male attraction from a distance (as low as)” value is on record as not above 5 femtomol. Further, in the test with C. elegans [1], the “Attract Males” value is reported as “ascr#3”, the “Promote Dauer Formation” value was “([strong])” and the “Repel Females/Herm.” value is reported as “ascr#3”. Besides, in the test with Panagrellus redivivus, the “Attract Males” value is on record as “ascr#3”. Besides, the “Dispersal (of dauer larvae, infectious juveniles)” value in the test with S. feltiae was “ascr#3”. In the test on S. glaseri, the “Attract Males” value is “ascr#3”. Also, the “most active amount for attraction in C. elegans” value with C. elegans [2] was approximately 1 pmol. Besides, in the test with C. elegans [2] (in vivo), the hermaphrodite repulsion result is on record as “repels hermaphrodites; also recorded: strongly deter” and the male attraction result is “strongly attracts males”. The dauer-inducing activity result with C. elegans [3] is reported as “promote dauer entry”.

As for `C[C@H](CC/C=C/C(=O)Nc1ccc(C(=O)O)cc1)O[C@@H]1O[C@@H](C)[C@H](O)C[C@H]1O` [ascr#8], in the test on C. elegans dauer larvae, the “dispersing nematodes, normalized to percent of the positive control response” value is on record as 50%. Further, in [4], the “preference for areas conditioned” value was “preferred”. Also, the “C. elegans male chemotaxis” value in the test on C. elegans males is on record as “not active”. Besides, in the test with C. elegans [1], the “Attract Males” value is reported as “ascr#8”; the “Dispersal (of dauer larvae, infectious juveniles)” value is recorded as “ascr#8”; the “Promote Dauer Formation” value is “([strong])”. For the same compound, in the test with Panagrellus redivivus, the “Attract Females/Herm.” value was “ascr#8” and the “Attract Males” value is “ascr#8”. In the test on S. feltiae, the “Dispersal (of dauer larvae, infectious juveniles)” value is “ascr#8”. Besides, the “Attract Males” value with S. glaseri was “ascr#8”. The dauer-inducing activity result in the test with C. elegans [3] is on record as “promote dauer entry”.

With `C[C@H](CCC(=O)O)O[C@@H]1O[C@@H](C)[C@H](O)C[C@H]1O` [ascr#9], the “substitution for ascr#2 in the C. elegans dispersal blend” value was “can replace” in the test on C. elegans dauer larvae and “able to substitute” with C. elegans dauer larvae (listed as Ascr#9). Further, the “dispersal activity when tested alone” value with S. feltiae IJs was “did not have activity”. In addition, the “preference for areas conditioned” value in [4] is on record as “preferred”. Besides, the “Attract Males” value in the test on C. elegans [1] and in the test on Panagrellus redivivus was “ascr#9” each time. Besides, the “Dispersal (of dauer larvae, infectious juveniles)” value (in test [5]; in test [6]; in the test on S. feltiae; in test [7]) was “ascr#9” throughout. The “Repel Females/Herm.” value in test [5] is listed as “ascr#9”.

Consider `C[C@H](CC(=O)O)O[C@@H]1O[C@@H](C)[C@H](O)C[C@H]1O` [ascr#11], for which, in the test on S. feltiae IJs, the “dispersal activity when tested alone” value is recorded as “did not have activity”. Besides, in test [6], the “Dispersal (of dauer larvae, infectious juveniles)” value is on record as “ascr#11”.
